Data taken from paper PMC12635456, “In Vivo Inhibition of Dipeptidyl Peptidase 4 and Neprilysin Activity Enables Measurement of GLP-1 Secretion in Male Rats” (Journal of the Endocrine Society, 2025).
Like-named read-outs stand apart in the source and are kept apart here.

Assays:
[1] = tested on: GLP-1 secretion; assay: Oral glucose challenge without inhibitor pretreatment (GLP-1 by RIA and ELISAs); conditions: oral glucose 2 g/kg, no inhibitors
[2] = cited from earlier work
Text: Glucagon-like peptide-1 (GLP-1), secreted from enteroendocrine cells in the gut, enhances glucose-stimulated insulin secretion and reduces appetite.

OC[C@H]1OC(O)[C@H](O)[C@@H](O)[C@@H]1O (some centres unmarked) [glucose]
Increase in GLP-1 concentration 15 minutes following glucose, C-terminal RIA [1]: ~15 pmol/L
Increase in GLP-1 concentration 15 minutes following glucose, Mercodia total ELISA [1]: around 5 pmol/L
Total GLP-1 plasma concentration 15 minutes after glucose, RIA ([1]; in-house C-terminal RIA 89390, mean ± SEM, n = 5-6, P < .02 vs baseline): 43.1 ± 3.7 pmol/L
Intact GLP-1 plasma concentration 15 minutes after glucose, Alpco ELISA ([1]; mean ± SEM, n = 5-6, P < .008 vs baseline): 0.8 ± 0.07 pmol/L
Total GLP-1 plasma concentration 15 minutes after glucose, Mercodia ELISA ([1]; mean ± SEM, n = 5-6, P < .02 vs baseline): 10.5 ± 1.8 pmol/L

CC[C@H](C)[C@H](NC(=O)[C@H](Cc1ccccc1)NC(=O)[C@H](CCC(=O)O)NC(=O)[C@H](CCCCN)NC(=O)[C@H](C)NC(=O)[C@H](C)NC(=O)[C@H](CCC(N)=O)NC(=O)CNC(=O)[C@H](CCC(=O)O)NC(=O)[C@H](CC(C)C)NC(=O)[C@H](Cc1ccc(O)cc1)NC(=O)[C@H](CO)NC(=O)[C@H](CO)NC(=O)[C@@H](NC(=O)[C@H](CC(=O)O)NC(=O)[C@H](CO)NC(=O)[C@@H](NC(=O)[C@H](Cc1ccccc1)NC(=O)[C@@H](NC(=O)CNC(=O)[C@H](CCC(=O)O)NC(=O)[C@H](C)NC(=O)[C@@H](N)Cc1c[nH]cn1)[C@@H](C)O)[C@@H](C)O)C(C)C)C(=O)N[C@@H](C)C(=O)N[C@@H](Cc1c[nH]c2ccccc12)C(=O)N[C@@H](CC(C)C)C(=O)N[C@H](C(=O)N[C@@H](CCCCN)C(=O)NCC(=O)N[C@@H](CCCNC(=N)N)C(N)=O)C(C)C [GLP-1(7-36)NH2]
Half-life in the circulation ([2]; humans): a few minutes
Half-life in the circulation ([2]; mice): a few minutes
Half-life in the circulation ([2]; rats): a few minutes
